How the values were obtained:
[1] = system: primary rat midbrain neurons; experiment: 6-OHDA-induced neurotoxicity in primary midbrain neurons, MTT and Hoechst 33342/PI staining; type: cell-based; conditions: 6-OHDA with or without PACA, MTT
Nrf2 = Nrf2 translocation into cell nuclei, Western blot and immunostaining; type: cell-based, rat
Procedure: Direct modification of Keap1 caused the dissociation of Nrf2-Keap1 complex. Based on Western blot analysis of the nuclear proteins and immunostaining of intracellular Nrf2, PACA induced the translocation of Nrf2 into the cell nuclei in a concentration-dependent manner. (A) Western blot analysis of cytosolic and nuclear Nrf2. Following PACA treatment, the cytosolic and nuclear proteins were isolated and analyzed by Western blotting for Nrf2 expression. GAPDH and lamin b were analyzed as the control of protein loading. (B) Immunostaining of the intracellular Nrf2. Following PACA treatment, the cells were probed with Nrf2 antibody, and subsequently visualized with […] secondary antibody. […] The images were captured under a fluorescence microscope. […]
Direct modification of Keap1 caused the dissociation of Nrf2-Keap1 complex. […] For Western blot analysis, the cellular proteins were separated into the cytosolic and nuclear fractions, and analyzed by Western blotting with Nrf2 antibodies. GAPDH was used as the control of protein loading, whereas Lamin B was detected as the nuclear biomarker. […] For immunostaining of the intracellular Nrf2, on the other hand, PC12 cells were sequentially probed with rabbit anti-Nrf2 antibody and detected by Alexa Fluor 594-conjugated goat anti-rabbit IgG antibodies PACA. The images were captured under a Zeiss fluorescence microscope.

[2] = Pharmacokinetic analysis of PACA after oral administration, plasma and brain, LC-MS/MS MRM; type: in vivo, Sprague Dawley rats
Procedure: (A) HPLC-MS/MS detection of PACA. (B) Determination of PACA in mouse plasma. (C) Determination of PACA in mouse brain tissues. PACA (30 mg/kg) was orally administered into mice. Blood samples and brain tissues were collected after different times (0, 0.5, 1, 2, 3, 6, 9, 12 or 24 h). PACA was determined by liquid chromatography-mass spectrometric multiple reaction monitoring-based strategy.
Nine male Sprague Dawley rats with a body weight of 240-280 g were purchased from Laboratory Animal Unit, HKU. The animals were housed in a qualified facility run on a 12-hour light and dark cycle. The animals were allowed unrestricted access to food and water. The protocol for the animal studies was approved by Li Ka Shing Faculty of Medicine, University of Hong Kong. The rats were administered with PACA (30 mg/kg) in 50% propanediol in saline by oral gavage whereas the control animal received vehicle only. The rats were anesthetized by isoflurane at the time points of 0, 0.5, 1, 2, 3, 6, 9, 12 or 24 h. Blood samples were collected by cardiac puncture using pre-heparinized syringes and immediately transferred into the tubes containing acetonitrile for preventing esterase metabolism. Blood samples were centrifuged at 5700 rpm for 10 minutes at 4° C. to recover plasma. Brain tissues were excised after the removal of blood vessels, blotted dry with clean paper towels, and weighed. All samples were stored at −80° C. before use. HPLC separation was performed on a Phenomenex Synergi hydro-RP C18 reversed phase column (150 mm×4.6 mm, 4 m) (Torrance, Calif., USA) under the control of Agilent HLPC 1100 system (Santa Clara, Calif., USA). Gradient was set using mobile phase: A, water with 0.05% (v/v) formic acid, B, acetonitrile with 0.05% (v/v) formic acid as follows: 0-2.5 min, 40-50% B; 2.5-5.5 min, 50-80% B; 5.5-11.5 min, 80% B; 11.5-12 min, 80-40% B, 12-15 min, 40% B. Flow rate was constant at 0.7 mL/min. The column temperature was maintained at 30° C. Sample volume for injection was 20 μL. […] Multiple-reaction monitoring (MRM) detection was used for the quantitation of all analytes.

PC12 cells = experiment: NGF-induced neurite outgrowth (neuritogenic activity) in PC12 cells; type: cell-based, rat; conditions: 72 hours
Procedure: The neuritogenic potential of PACA was verified by the induction of the main neuronal biomarkers (i.g., β3-tubulin, MAP-2 and GAP43). (A) Representative images for the potentiation of NGF-induced neurite outgrowth in PC12 cells by PACA. PC12 cells were treated with NGF (2 ng/ml) and PACA, alone or in combination. The cells were stained with neurite outgrowth staining kit and imaged under a fluorescence microscope. (B) Quantification of neurite outgrowth in Panel A. Following the staining of neurites, the cells bearing neurites longer than 20 μm were counted under a fluorescence microscope. **, p<0.01 (sample vs NGF alone). (C) Western blot analysis of neuronal biomarkers. The cells were treated with NGF and PACA, alone or in combination, whereas the control cells were treated with vehicle for 72 hours. The cellular proteins were extracted and detected by Western blot analysis for the expression of neuron marker. GAPDH was detected as the control of protein loading.
The neuritogenic activity of PACA was evaluated in rat dopaminergic PC12 cells. PC12 cells were treated with NGF (2 ng/mL) alone or in combination with PACA at the concentrations of 5, 10, 20 μM for 72 hours. The cells were stained by a neurite outgrowth kit, and subsequently analyzed for neurites (>20 μm) under a fluorescence microscope. […] Following the treatment with PACA and NGF, alone or in combination, PC12 cells were analyzed by Western blotting for the expression of neuronal biomarkers (i.g., β3-tubulin, MAP2 and GAP-43).

In the case of `C#CCNC(=O)/C=C/c1ccc(O)c(O)c1` [PACA, (E)-3-(3,4-dihydroxyphenyl)-N-(prop-2-yn-1-yl)acrylamide], the “6-OHDA neurotoxicity in primary rat midbrain neurons” value [1] is reported as “attenuated 6-hydroxydopamine (6-OHDA) neurotoxicity”, the “levels of nuclear Nrf2” value (Nrf2; PACA at different concentrations, Western blot of nuclear fraction) is reported as “significantly increased the levels of nuclear Nrf2 in a concentration-dependent manner” and the “intracellular Nrf2 localization by immunostaining” value (Nrf2; PC12 cells, anti-Nrf2 immunostaining) is reported as “promoted the accumulation of Nrf2 in the cell nucleus”. For the same molecule, the “bioavailability in plasma and brain tissues” value ([2]; after oral administration) was “rapidly bioavailable in plasma and brain tissues”, the “time to peak concentration in blood” value ([2]; oral administration, 30 mg/kg) was ≤ 60 min and the “time to peak concentration in brain tissues” value ([2]; oral administration, 30 mg/kg) was ≤ 60 min. The “neurite outgrowth by compound alone” value (PC12 cells; PACA 20 μM alone) was “did not induce neurite outgrowth”, the “increase in number of neurite-bearing cells relative to NGF alone” value (PC12 cells; PACA 20 μM and NGF 2 ng/mL in combination) was ~6 fold and the “potentiation of NGF-induced neurite outgrowth” value (PC12 cells; PACA 5, 10, 20 μM with NGF 2 ng/mL, neurites >20 μm, compared with NGF alone) was “significantly potentiated NGF-induced neurite outgrowth in a concentration-dependent manner”.
